Assay results: ChEMBL document CHEMBL1201862, “PubChem BioAssay data set” (2004)
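Five concentrations, 48 hours, 96-well plates. GI50: concentration for 50% inhibition of growth.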 Calls of active or inactive are those of the source. No stated cut-off is given here; in the data, active = GI50 up to about 1.1 µM and inactive = higher.

How the values were obtained:
Experiment in all cases: growth of human tumour cells (NCI), 48 h
786-0 = system: 786-0
A498 = system: A498
A549 = system: A549
ACHN = system: ACHN
CAKI-1 = system: CAKI-1
CCRF-CEM = system: CCRF-CEM
COLO 205 = system: COLO 205
DU-145 = system: DU-145
EKVX = system: EKVX
HCC 2998 = system: HCC 2998
HCT-116 = system: HCT-116
HCT-15 = system: HCT-15
HL-60 = system: HL-60
HOP-62 = system: HOP-62
HOP-92 = system: HOP-92
HT-29 = system: HT-29
Hs-578T = system: Hs-578T
IGROV-1 = system: IGROV-1
K562 = system: K562
KM12 = system: KM12
LOX IMVI = system: LOX IMVI
M14 = system: M14
MCF7 = system: MCF7
MDA-MB-231 = system: MDA-MB-231
MDA-MB-435 = system: MDA-MB-435
MDA-N = system: MDA-N
MOLT-4 = system: MOLT-4
Malme-3M = system: Malme-3M
NCI-H226 = system: NCI-H226
NCI-H23 = system: NCI-H23
NCI-H460 = system: NCI-H460
NCI-H522 = system: NCI-H522
NCI/ADR-RES = system: NCI/ADR-RES
OVCAR-3 = system: OVCAR-3
OVCAR-4 = system: OVCAR-4
OVCAR-5 = system: OVCAR-5
OVCAR-8 = system: OVCAR-8
RPMI-8226 = system: RPMI-8226
RXF 393 = system: RXF 393
SF-268 = system: SF-268
SF-295 = system: SF-295
SF-539 = system: SF-539
SK-MEL-28 = system: SK-MEL-28
SK-MEL-5 = system: SK-MEL-5
SK-OV-3 = system: SK-OV-3
SN12C = system: SN12C
SNB-19 = system: SNB-19
SNB-75 = system: SNB-75
SR = system: SR
SW-620 = system: SW-620
T47D = system: T47D
TK-10 = system: TK-10
U-251 = system: U-251
UACC-257 = system: UACC-257
UACC-62 = system: UACC-62
PC-3 = system: PC-3
UO-31 = system: UO-31

SMILES: CCOP(=O)(OCC)/C(C#N)=C/c1ccccn1
- GI50 (786-0): > 100 µM (inactive)
- GI50 (A498): > 100 µM (inactive)
- GI50 (A549): > 100 µM (inactive)
- GI50 (ACHN): > 100 µM (inactive)
- GI50 (CAKI-1): > 100 µM (inactive)
- GI50 (CCRF-CEM): > 100 µM (inactive)
- GI50 (COLO 205): > 100 µM (inactive)
- GI50 (DU-145): > 100 µM (inactive)
- GI50 (EKVX): > 100 µM (inactive)
- GI50 (HCC 2998): > 100 µM (inactive)
- GI50 (HCT-116): > 100 µM (inactive)
- GI50 (HCT-15): > 100 µM
- GI50 (HL-60): > 100 µM (inactive)
- GI50 (HOP-62): > 100 µM (inactive)
- GI50 (HOP-92): > 100 µM (inactive)
- GI50 (HT-29): > 100 µM (inactive)
- GI50 (Hs-578T): > 100 µM (inactive)
- GI50 (IGROV-1): > 100 µM (inactive)
- GI50 (K562): > 100 µM (inactive)
- GI50 (KM12): > 100 µM (inactive)
- GI50 (LOX IMVI): > 100 µM (inactive)
- GI50 (M14): > 100 µM (inactive)
- GI50 (MCF7): > 100 µM (inactive)
- GI50 (MDA-MB-231): > 100 µM (inactive)
- GI50 (MDA-MB-435): > 100 µM (inactive)
- GI50 (MDA-N): > 100 µM (inactive)
- GI50 (MOLT-4): > 100 µM (inactive)
- GI50 (Malme-3M): > 100 µM (inactive)
- GI50 (NCI-H226): > 100 µM (inactive)
- GI50 (NCI-H23): > 100 µM (inactive)
- GI50 (NCI-H460): > 100 µM (inactive)
- GI50 (NCI-H522): > 100 µM (inactive)
- GI50 (NCI/ADR-RES): > 100 µM (inactive)
- GI50 (OVCAR-3): > 100 µM (inactive)
- GI50 (OVCAR-4): > 100 µM (inactive)
- GI50 (OVCAR-5): > 100 µM (inactive)
- GI50 (OVCAR-8): > 100 µM (inactive)
- GI50 (RPMI-8226): > 100 µM (inactive)
- GI50 (RXF 393): > 100 µM (inactive)
- GI50 (SF-268): > 100 µM (inactive)
- GI50 (SF-295): > 100 µM (inactive)
- GI50 (SF-539): > 100 µM (inactive)
- GI50 (SK-MEL-28): > 100 µM (inactive)
- GI50 (SK-MEL-5): > 100 µM (inactive)
- GI50 (SK-OV-3): > 100 µM (inactive)
- GI50 (SN12C): > 100 µM (inactive)
- GI50 (SNB-19): > 100 µM (inactive)
- GI50 (SNB-75): > 100 µM (inactive)
- GI50 (SR): > 100 µM (inactive)
- GI50 (SW-620): > 100 µM (inactive)
- GI50 (T47D): > 100 µM (inactive)
- GI50 (TK-10): > 100 µM (inactive)
- GI50 (U-251): > 100 µM (inactive)
- GI50 (UACC-257): > 100 µM (inactive)
- GI50 (UACC-62): > 100 µM (inactive)

SMILES: Cc1ccc(S(=O)(=O)NCCSCCSCCNS(=O)(=O)c2ccc(C)cc2)cc1
- GI50 (A498): 10 µM (inactive)
- GI50 (A549): 30.5 µM (inactive)
- GI50 (ACHN): 48.6 µM (inactive)
- GI50 (CCRF-CEM): 36.9 µM (inactive)
- GI50 (COLO 205): 19.4 µM (inactive)
- GI50 (DU-145): 51.2 µM (inactive)
- GI50 (HCC 2998): 39.4 µM (inactive)
- GI50 (HCT-116): 34.7 µM (inactive)
- GI50 (HOP-92): 22 µM (inactive)
- GI50 (HT-29): 28.6 µM (inactive)
- GI50 (Hs-578T): 47.2 µM (inactive)
- GI50 (K562): 48.6 µM (inactive)
- GI50 (KM12): 25.6 µM (inactive)
- GI50 (LOX IMVI): 25.4 µM (inactive)
- GI50 (MCF7): 38.9 µM (inactive)
- GI50 (MDA-N): 56 µM (inactive)
- GI50 (MOLT-4): 34 µM (inactive)
- GI50 (NCI-H226): 49 µM (inactive)
- GI50 (NCI-H460): 25.4 µM (inactive)
- GI50 (NCI-H522): 62.5 µM (inactive)
- GI50 (NCI/ADR-RES): 24 µM (inactive)
- GI50 (OVCAR-4): 34.8 µM (inactive)
- GI50 (OVCAR-8): 47.2 µM (inactive)
- GI50 (PC-3): 22.6 µM (inactive)
- GI50 (RXF 393): 56.2 µM (inactive)
- GI50 (SF-268): 24 µM (inactive)
- GI50 (SF-295): 45.8 µM (inactive)
- GI50 (SK-MEL-28): > 100 µM (inactive)
- GI50 (SK-MEL-5): 4.7 µM (inactive)
- GI50 (SK-OV-3): 18.4 µM (inactive)
- GI50 (SN12C): 47.4 µM (inactive)
- GI50 (SNB-19): 63.4 µM (inactive)
- GI50 (SNB-75): 20.8 µM (inactive)
- GI50 (SR): 37.2 µM (inactive)
- GI50 (SW-620): 44.6 µM (inactive)
- GI50 (TK-10): 53.2 µM (inactive)
- GI50 (U-251): 4.6 µM (inactive)
- GI50 (UACC-257): 34.4 µM (inactive)
- GI50 (UO-31): 34.1 µM (inactive)
